From patent US11986471B2, “Compounds and methods of use” (Tango Therapeutics, Inc., priority 2018, dated 2024)

Columns and labels:
[1] = system: HAP1 MTAP-intact; assay: SDMA in-cell western assay, HAP1 MTAP-intact cell line; assay type: cell-based; conditions: Homo sapiens
Summary of the method: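 Using an MTAP-isogenic HAP1 cell pair, inhibition of SDMA formation is read by in-cell western and expressed as IC50. MTAP-selectivity is assigned where the ratio between lines reaches 3 fold or greater.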

[2] = target: T1, PRMT5 (Homo sapiens, UniProt O14744); assay: PRMT5 IC50 assay in the presence of MTA as cofactor; assay type: biochemical; conditions: for IC50: PRMT5, MTA as cofactor
T1 construct: purchased Viva (custom protein)
Summary of the method: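 Three cofactor conditions are run: SAM-bound, MTA-bound and cofactor-free enzyme. IC50 is read from each; for the SAM and MTA arms it is divided by 1.5 and 13.5 respectively to give Ki.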

[3] = target: T1, PRMT5; assay: PRMT5 IC50 assay in the presence of SAM as cofactor; assay type: biochemical
Summary of the method: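 For the SAM-containing format, dividing IC50 by 1.5 yields Ki; for the MTA-containing format the divisor is 13.5. A third format without cofactor gives IC50 alone.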

[4] = target: T1, PRMT5; assay: PRMT5 IC50 assay with no cofactor; assay type: biochemical
Summary of the method: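 Ki conversion: SAM arm, Ki=IC50/1.5; MTA arm, Ki=IC50/13.5. No-cofactor arm reported as IC50 only. Selectivity expressed as Ki(SAM)/Ki(MTA).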

[5] = system: HAP1 MTAP-deleted; assay: SDMA in-cell western assay, HAP1 MTAP-deleted cell line; assay type: cell-based; conditions: for IC50: Homo sapiens, HAP1 MTAP-deleted cell line; for MTAP Intact/Deleted Ratio: IC50 ratio HAP1 MTAP-intact / HAP1 MTAP-deleted
Summary of the method: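 In-cell western for SDMA marks; MTAP-deleted (null) HAP1 background; values given as IC50.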

[6] = ratio between Ki in the presence of SAM and Ki in the presence of MTA
[7] = ratio between the Ki in the presence of SAM and the Ki in the presence of MTA

T1 sequence (O14744 whole entry): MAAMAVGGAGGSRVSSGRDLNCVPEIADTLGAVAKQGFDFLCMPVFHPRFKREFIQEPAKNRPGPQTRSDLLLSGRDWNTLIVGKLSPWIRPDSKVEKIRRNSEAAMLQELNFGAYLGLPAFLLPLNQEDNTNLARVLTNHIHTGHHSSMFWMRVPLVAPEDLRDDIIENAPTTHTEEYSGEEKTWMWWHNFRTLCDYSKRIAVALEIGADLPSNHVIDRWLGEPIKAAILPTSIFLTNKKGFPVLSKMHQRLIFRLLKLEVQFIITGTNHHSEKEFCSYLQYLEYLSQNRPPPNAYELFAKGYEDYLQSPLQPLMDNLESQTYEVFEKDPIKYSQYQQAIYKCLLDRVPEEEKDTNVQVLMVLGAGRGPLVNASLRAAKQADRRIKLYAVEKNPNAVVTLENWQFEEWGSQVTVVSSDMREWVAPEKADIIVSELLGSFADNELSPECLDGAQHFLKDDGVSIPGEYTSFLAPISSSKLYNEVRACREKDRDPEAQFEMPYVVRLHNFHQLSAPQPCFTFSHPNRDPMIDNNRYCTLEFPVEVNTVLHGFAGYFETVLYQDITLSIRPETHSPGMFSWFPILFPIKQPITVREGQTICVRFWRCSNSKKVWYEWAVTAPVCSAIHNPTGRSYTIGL
T1 sequence (Q9BQA1 whole entry partner): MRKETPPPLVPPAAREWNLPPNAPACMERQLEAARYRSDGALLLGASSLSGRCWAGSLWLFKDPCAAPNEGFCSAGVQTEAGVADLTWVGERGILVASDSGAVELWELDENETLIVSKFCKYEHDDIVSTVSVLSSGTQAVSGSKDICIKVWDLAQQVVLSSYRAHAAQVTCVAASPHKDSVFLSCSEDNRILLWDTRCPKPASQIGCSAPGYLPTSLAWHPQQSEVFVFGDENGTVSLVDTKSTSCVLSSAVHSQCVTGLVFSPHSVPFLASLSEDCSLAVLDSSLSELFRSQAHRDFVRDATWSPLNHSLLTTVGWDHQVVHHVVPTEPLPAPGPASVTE

Compound	IC50 [1] [nM]	IC50 [2] [nM]	SAM/MTA Ratio [2, 6]	IC50 [3] [nM]	IC50 ([4]; read-out: No Co-factor IC50) [nM]	IC50 [5] [nM]	MTAP Intact/Deleted Ratio [5]	SAM/MTA Ratio [2, 7]	IC50 [4] [nM]
Cc1ncoc1COc1ccc2c(c1)CCN(C[C@@H](O)CNC(=O)c1cc(NC3CCC3)ncn1)C2 [Compound 374, 6-(cyclobutylamino)-N-[(2S)-2-hydroxy-3-{6-[(4-methyl-1,3-oxazol-5-yl)methoxy]-1,2,3,4-tetrahydroisoquinolin-2-yl}propyl]pyrimidine-4-carboxamide]	1000 to 10000	50 to 500	A (a Ki ratio greater than or equal to 10 fold between the Ki in the presence of SAM and the Ki in the presence of MTA)	50 to 500	≥ 5000	< 1000	C* (an IC50 ratio of less than 3 fold between the IC50 in the HAP1 MTAP-intact cell line and the HAP1 MTAP-deleted cell line)		
Cc1ncoc1COc1ccc2c(c1Br)CCN(C[C@@H](O)CNC(=O)c1ccnc(NC3CCC3)c1)C2 [Compound 267, N-[(2S)-3-[5-bromo-6-[(4-methyloxazol-5-yl)methoxy]-3,4-dihydro-1H-isoquinolin-2-yl]-2-hydroxy-propyl]-2-(cyclobutylamino)pyridine-4-carboxamide]	≥ 10000	50 to 500		500 to 5000	≥ 5000	≥ 10000	C* (an IC50 ratio of less than 3 fold between the IC50 in the HAP1 MTAP-intact cell line and the HAP1 MTAP-deleted cell line)		
Cc1c(OCc2cnn[nH]2)ccc2c1CCN(C[C@@H](O)CNC(=O)c1ccnc(NC3CCC3)c1)C2 [Compound 273, (S)—N-(3-(6-((1H-1,2,3-triazol-5-yl)methoxy)-5-methyl-3,4-dihydroisoquinolin-2(1H)-yl)-2-hydroxypropyl)-2-(cyclobutylamino)isonicotinamide]	≥ 10000	500 to 5000		500 to 5000	≥ 5000	1000 to 10000	C* (an IC50 ratio of less than 3 fold between the IC50 in the HAP1 MTAP-intact cell line and the HAP1 MTAP-deleted cell line)		
COCCN(C)c1cc(C(=O)NC[C@H](O)CN2CCc3c(ccc(OCc4cnco4)c3Cl)C2)cc(NC2CCC2)n1 [Compound 345]	≥ 10000	50 to 500	A (a Ki ratio greater than or equal to 10 fold between the Ki in the presence of SAM and the Ki in the presence of MTA)	50 to 500	≥ 5000	1000 to 10000	B* (an IC50 ratio greater than or equal to 3 fold but lower than 10 fold between the IC50 in the HAP1 MTAP-intact cell line and the HAP1 MTAP-deleted cell line)		
COc1ccc(C(=O)N2CCc3cc(C(=O)NC[C@H](O)CN4CCc5c(ccc(OCc6cnco6)c5C)C4)ccc3C2)cc1 [Compound 540, N-[(2S)-2-hydroxy-3-{5-methyl-6-[(1,3-oxazol-5-yl)methoxy]-1,2,3,4-tetrahydroisoquinolin-2-yl}propyl]-2-(4-methoxybenzoyl)-1,2,3,4-tetrahydroisoquinoline-6-carboxamide]	≥ 10000	50 to 500		50 to 500		1000 to 10000	C* (an IC50 ratio of less than 3 fold between the IC50 in the HAP1 MTAP-intact cell line and the HAP1 MTAP-deleted cell line)	A (a Ki ratio greater than or equal to 10 fold between the Ki in the presence of SAM and the Ki in the presence of MTA)	500 to 5000
CC(=O)N1CCC(Nc2cc(C(=O)NC[C@H](O)CN3CCc4cc(OCc5cnn[nH]5)ccc4C3)ncn2)CC1 [Compound 257, (S)—N-(3-(6-((1H-1,2,3-triazol-5-yl)methoxy)-3,4-dihydroisoquinolin-2(1H)-yl)-2-hydroxypropyl)-6-((1-acetylpiperidin-4-yl)amino)pyrimidine-4-carboxamide]	≥ 10000	50 to 500	A (a Ki ratio greater than or equal to 10 fold between the Ki in the presence of SAM and the Ki in the presence of MTA)	500 to 5000	≥ 5000	1000 to 10000	C* (an IC50 ratio of less than 3 fold between the IC50 in the HAP1 MTAP-intact cell line and the HAP1 MTAP-deleted cell line)		
CCCC(=O)N1CCC(Nc2cc(C(=O)NC[C@H](O)CN3CCc4c(ccc(OCc5cnco5)c4C)C3)ccn2)CC1 [Compound 470, (S)-2-((1-butyrylpiperidin-4-yl)amino)-N-(2-hydroxy-3-(5-methyl-6-(oxazol-5-ylmethoxy)-3,4-dihydroisoquinolin-2(1H)-yl)propyl)isonicotinamide]	≥ 10000	50 to 500		50 to 500		< 1000	A* (an IC50 ratio greater than or equal to 10 fold between the IC50 in the HAP1 MTAP-intact cell line and the HAP1 MTAP-deleted cell line)	A (a Ki ratio greater than or equal to 10 fold between the Ki in the presence of SAM and the Ki in the presence of MTA)	500 to 5000
Cc1ncoc1COc1ccc2c(c1Br)CCN(C[C@@H](O)CNC(=O)c1ccnc(NC3CCCC3)c1)C2 [Compound 350, (S)—N-(3-(5-bromo-6-((4-methyloxazol-5-yl)methoxy)-3,4-dihydroisoquinolin-2(1H)-yl)-2-hydroxypropyl)-2-(cyclopentylamino)isonicotinamide]	≥ 10000	50 to 500	A (a Ki ratio greater than or equal to 10 fold between the Ki in the presence of SAM and the Ki in the presence of MTA)	50 to 500	≥ 5000	≥ 10000	C* (an IC50 ratio of less than 3 fold between the IC50 in the HAP1 MTAP-intact cell line and the HAP1 MTAP-deleted cell line)		
Cc1ncoc1COc1ccc2c(c1)CCN(C[C@@H](O)CNC(=O)c1cncc(NC3CCC3)c1)C2 [Compound 271, (S)-5-(cyclobutylamino)-N-(2-hydroxy-3-(6-((4-methyloxazol-5-yl)methoxy)-3N-dihydroisoquinolin-2(1H)-yl)propyl)nicotinamide]	< 1000	50 to 500	A (a Ki ratio greater than or equal to 10 fold between the Ki in the presence of SAM and the Ki in the presence of MTA)	50 to 500	500 to 5000	< 1000	C* (an IC50 ratio of less than 3 fold between the IC50 in the HAP1 MTAP-intact cell line and the HAP1 MTAP-deleted cell line)		
CCC(=O)N1CCN(c2nc(NC3COC3)cc(C(=O)NC[C@H](O)CN3CCc4cc(OCc5cnco5)ccc4C3)n2)CC1 [Compound 309, (S)—N-(2-hydroxy-3-(6-(oxazol-5-ylmethoxy)-3,4-dihydroisoquinolin-2(1H)-yl)propyl)-6-(oxetan-3-ylamino)-2-(4-propionylpiperazin-1-yl)pyrimidine-4-carboxamide]	≥ 10000	50 to 500	A (a Ki ratio greater than or equal to 10 fold between the Ki in the presence of SAM and the Ki in the presence of MTA)	50 to 500	500 to 5000	1000 to 10000	C* (an IC50 ratio of less than 3 fold between the IC50 in the HAP1 MTAP-intact cell line and the HAP1 MTAP-deleted cell line)		
Cc1ncoc1COc1ccc2c(c1)CCN(C[C@@H](O)CNC(=O)c1cc(Nc3cccnc3)nc(N3[C@@H]4CC[C@H]3COC4)c1)C2 [Compound 603, 2-((1R,5S)-3-oxa-8-azabicyclo[3.2.1]octan-8-yl)-N—((S)-2-hydroxy-3-(6-((4-methyloxazol-5-yl)methoxy)-3,4-dihydroisoquinolin-2(1H)-yl)propyl)-6-(pyridin-3-ylamino)isonicotinamide]	1000 to 10000	< 50		50 to 500		< 1000	B* (an IC50 ratio greater than or equal to 3 fold but lower than 10 fold between the IC50 in the HAP1 MTAP-intact cell line and the HAP1 MTAP-deleted cell line)	A (a Ki ratio greater than or equal to 10 fold between the Ki in the presence of SAM and the Ki in the presence of MTA)	500 to 5000
Cc1c(OCc2cnco2)ccc2c1CCN(C[C@@H](O)CNC(=O)c1cc(NC3CCN(C(=O)CC(C)C)CC3)ncn1)C2 [Compound 528]	≥ 10000	50 to 500		50 to 500		1000 to 10000	C* (an IC50 ratio of less than 3 fold between the IC50 in the HAP1 MTAP-intact cell line and the HAP1 MTAP-deleted cell line)	A (a Ki ratio greater than or equal to 10 fold between the Ki in the presence of SAM and the Ki in the presence of MTA)	500 to 5000
CCCN(C)c1cc(C(=O)NC[C@H](O)CN2CCc3cc(OCc4cnco4)ccc3C2)cc(NC2CCC2)n1 [Compound 415]	1000 to 10000	50 to 500	A (a Ki ratio greater than or equal to 10 fold between the Ki in the presence of SAM and the Ki in the presence of MTA)	50 to 500	500 to 5000	< 1000	C* (an IC50 ratio of less than 3 fold between the IC50 in the HAP1 MTAP-intact cell line and the HAP1 MTAP-deleted cell line)		
